Laboratory results from patent publication US20250250538A1, “METHODS FOR MAKING AND USING DIFFERENTIATED NEURAL CELLS” (RESEARCH DEVELOPMENT FOUNDATION, priority 2022, published 2025).

Experiments:
[1] = system: human embryonic stem cell line HS420; assay: Dopaminergic differentiation of hESC with ALK inhibitors in the 3D-AirLiwell protocol, q-PCR after 2 and 4 weeks; format: cell-based; conditions: HS420, 3D-AirLiwell, q-PCR at 2 and 4 weeks; for activity with respect to general neural differentiation, compared to LDN/SB (dual smad inhibition): exposed from day 0 during one week at 0.2 μM and 0.8 μM; for effect on dopaminergic differentiation, compared to LDN/SB: exposed from day 0 during one week at 0.2 M and 0.8 M
Experimental: FIG. 22. Dopaminergic differentiation adding Alk-I compounds in 3D-Ali protocol. The concentrations of the compounds tested were 0.2 μM and 0.8 μM.
FIG. 23A-D. Quantitative PCR results: Dopaminergic differentiation adding Alk-I compounds in 3D-Ali protocol. Shown are qPCR results at week 2 and week 4 for (A) Ki-67 and Nestin; (B) Pax6 and B3-Tub; (C) Lmx1a and Nurr-1; and (D) Map-2 and TH. The data in FIGS. 23A-D shown in each group of 12 bars represents, from left to right: 1: Control day 0, 2: LDN193189/SB431542, 3: DMSO 0.2 μM, 4: DMSO 0.8 μM, 5: DMH1 0.2 μM, 6: DMH2 0.2 μM, 7: A-8301 0.2 μM, 8: K02288 0.2 μM, 9: DMH1 0.8 μM, 10: DMH2 0.8 μM, 11: A-8301 0.8 μM, 12: K02288 0.8 μM. The 11 bars in the bottom bar graph in FIG. 23D represent data, from left to right, from: 1: Control day 0, 2: LDN193189/SB431542, 3: DMSO 0.2 μM, 4: DMSO 0.8 μM, 5: DMH1 0.2 μM, 6: DMH2 0.2 μM, 7: A-8301 0.2 μM, 8: K02288 0.2 μM, 9: DMH1 0.8 μM, 10: DMH2 0.8 μM, and 11: A-8301 0.8 μM.
For neural differentiation, 2200 human pluripotent stem cells per microwell in supplemented X-VIVO medium were deposited on a substrate material consisting in molded microwells on an insert in air-liquid interface (720 microwells per well). In order to correctly distribute the cells in each microwell, the substrate material is gently shacked and put on a stable support for 15 min. Supplemented X-VIVO medium was added under the insert. Medium from the cell suspension added on the microwells, was then removed by aspiration with a 0.5×16 mm needle and spheroids are just covered by a thin film (10) of residual medium before incubation of the plate at 37° C. for 24 hours.
24 hours after spheroids formation, culture medium under the insert is replaced with fresh medium made by a combination of half X-VIVO and half Neurobasal medium without ROCK inhibitor supplemented with 1% of penicillin/streptomycin, 1% Non-essential amino-acids, 1% B-27 supplement (Thermofisher), L-Glutamin, 0.5 μM of SB431542, 10 μM LDN193189 (dual-SMAD inhibition cocktail), 100 ng/ml of SHH, 2 μM of Purmorphamin and 100 ng/ml FGF-8. Spheroids are then cultured in their individualized microwells in a conventional incubator at 37° C. and 5% C02. At day 3, 3 μM of CHIR99021 was added. The neurobasal medium replaced progressively the X-VIVO medium. At day 8, medium is replaced by Neurobasal medium supplemented with 1% of penicillin/streptomycin, 1% Non-essential amino-acids, 1% B-27 supplement, 3 μM of CHIR99021, 0.5 mM of cAMP, […], […], 5 ng/mL of FGF20, 1 ng/mL of TGF-B3 and 1 μM of Compound E. At day 13 CHIR99021 is removed. NB: for each medium exchange, the half of medium was refreshed, using 0.5 ml per well.
For qRT-PCR, RNA was extracted from dopaminergic neurospheres cultivated in immersion (3D-i) and in air-liquid culture interface (3D-ALi) derived from 3 different cell batches of HS420 cells. The time points for RNA extraction were days: 3, 8, 15, 22, 29, 43, 57. Total RNA isolation was performed using the Qiagen RNeasy kit according to the manufacturer's instructions. RNA concentration was determined by a spectrometer (Thermo Scientific™ NanoDrop 2000) and RNA quality was verified by the 2100 Bioanalyzer (Agilent). Quantitative PCR was performed with Tecan Freedom Evo by using SYBR green fluorescence. cDNA was produced from RNA by using the prime script RT reagent kit (Takara). All primers were diluted at a concentration of […], and a master mix was used (Power SYBR Green Master Mix, Thermo Fisher Scientific). To perform the RNA-sequencing, the same RNA used in qPCR, were used to analyze the gene expression at week 6 (=day 43) of differentiation. […]

[2] = system: dopaminergic neurospheres; assay: Effects of antioxidants on three-dimensional dopaminergic neuron differentiation (3D-Ali); format: cell-based, human; conditions: 3D-Ali neurospheres cultured with anti-oxidant (FIG. 21B)
Text: FIG. 20. Protocol design with the addition of anti-oxidants. FIG. 21A-B. Effects of DA maturation with the additional of anti-oxidants. […] The inventors also tested the effects of different antioxidants on three-dimensional dopaminergic neuron differentiation. […] Most of the tested anti-oxidants diminish TH expression during dopaminergic neuron differentiation.

[3] = system: dopaminergic neurospheres; assay: Effect of laminin and hypoxia on dopaminergic maturation of neurospheres; format: cell-based, human; conditions: 2.5% and 10% laminin; normoxia (20% oxygen) or hypoxia (3% oxygen); day 29
Text: FIG. 17. Experimental design and engineering of maturation protocol.
FIG. 18. Effect of hypoxia and laminin on dopaminergic maturation.
To improve the maturation step, 2.5% or 10% of Laminin 511 (Takkara) or Geltrex® (A growth factors reduced extracellular matrix, ThermoFisher) will be added into the cell culture medium to promote neuronal maturation of spheroids starting from day 1 of differentiation to the end and from day 13 to the end. RGD peptides could also be tested to enhance maturation, by adding them to the culture medium similarly to laminin or geltrex.
The inventors tested whether the additional of an extracellular matrix and/or hypoxia could improve the development of mature neurons. 2.5% and 10% laminin and normoxia (20% oxygen) or hypoxia (3% oxygen) was tested (FIG. 17). […] It was further hypothesized that other changes to the cell culture, such as modification of the volume of the cell culture medium could provide for an improvement in the maturation of neurons. […] In AirLiwell (6 well plate), a seeding 1.5 million cells per well (6 well AirLiwell plate) yields 2350 neurospheres.

Compound	activity with respect to general neural differentiation, compared to LDN/SB (dual smad inhibition) [1]	effect on dopaminergic differentiation, compared to LDN/SB [1]	DA neuron differentiation [2]	effect on maturation of dopaminergic neurons [3]
Cc1cccc(-c2nn(C(=S)Nc3ccccc3)cc2-c2ccnc3ccccc23)n1 [A-8301, 3-(6-Methyl-2-pyridinyl)-N -phenyl-4-(4-quinolinyl)-1H -pyrazole-1-carbothioamide]	activity comparable to LDN/SB	no major effects	–	–
CC(C)Oc1ccc(-c2cnc3c(-c4ccnc5ccccc45)cnn3c2)cc1 [DMH1, 4-[6-[4-(1-Methylethoxy)phenyl]pyrazolo[1,5-a]pyrimidin-3-yl]-quinoline]	activity comparable to LDN/SB	roughly equipotent as compared to LDN/SB	–	–
c1ccc2c(-c3cnn4cc(-c5ccc(OCCN6CCOCC6)cc5)cnc34)ccnc2c1 [DMH2, 4-[6-[4-[2-(4-Morpholinyl)ethoxy]phenyl]pyrazolo[1,5-a]pyrimidin-3-yl]quinoline]	activity comparable to LDN/SB	roughly equipotent as compared to LDN/SB	–	–
COc1cc(-c2cc(-c3cccc(O)c3)cnc2N)cc(OC)c1OC [K02288]	activity comparable to LDN/SB	no major effects	–	–
O=C1O[C@H]([C@@H](O)CO)C(O)=C1O [ascorbic acid]	–	–	marked enhancement	–
laminin	–	–	–	did not provide any apparent effect
